Laboratory results: BindingDB's records for PubMed 35442672 (Fudan University, 2022)

Molecular target: T1, Dual specificity mitogen-activated protein kinase kinase 3 (Homo sapiens, UniProt P46734)
T1 sequence (P46734 whole entry): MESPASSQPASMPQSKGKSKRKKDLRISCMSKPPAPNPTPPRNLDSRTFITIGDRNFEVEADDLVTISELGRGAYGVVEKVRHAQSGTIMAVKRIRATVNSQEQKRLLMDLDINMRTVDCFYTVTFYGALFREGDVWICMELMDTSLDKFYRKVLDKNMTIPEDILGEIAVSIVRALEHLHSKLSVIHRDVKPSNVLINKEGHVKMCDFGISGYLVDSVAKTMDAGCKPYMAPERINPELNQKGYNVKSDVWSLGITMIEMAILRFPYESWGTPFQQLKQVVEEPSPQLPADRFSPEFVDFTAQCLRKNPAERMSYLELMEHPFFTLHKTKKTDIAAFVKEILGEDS
Experiment: Binding affinity to CM5 chip immobilized human MKK3 (20 to 347 residues) expressed in Escherichia coli BL21 (DE3) assessed as dissociation constant, Kd by surface plasmon resonance analysis

COc1ccc([C@H]2CC(=O)c3cc(OC)cc(OC)c32)cc1
koff: 0.00361 s⁻¹
